Experimental data reported in US8263643B2, “Polyphenol compounds with modulating neurotransmitter release” (Sungkyunkwan University Foundation for Corporate …, priority 2007, dated 2012).
Read-outs that look alike come from different tables or passages of the source. Marks after values point to notes of the source that are not given here.

Assays:
[1] = target: T1, membrane fusion caused by SNARE (SNAP25, syntaxin 1A, VAMP2) (UniProt P60879+P63045+Q16623); test: Membrane fusion assay with SNARE-reconstituted liposomes (fluorescence); type: biochemical; conditions: for remaining activity at 20 µM: read-out: Membrane fusion caused by SNARE (% of fusion without inhibitor); for Reduction of membrane fusion (in words): FIG. 3; for Ratio for inhibition by 50% (IR50), membrane fusion: molar concentration ratio phenolic compound:SNAP-25, average of at least three measurements
T1 construct: made in house; host or cells: E. coli (Codon (+) RIL, Novagen)
T1 sequence (P60879 whole entry, the tested form may be a part): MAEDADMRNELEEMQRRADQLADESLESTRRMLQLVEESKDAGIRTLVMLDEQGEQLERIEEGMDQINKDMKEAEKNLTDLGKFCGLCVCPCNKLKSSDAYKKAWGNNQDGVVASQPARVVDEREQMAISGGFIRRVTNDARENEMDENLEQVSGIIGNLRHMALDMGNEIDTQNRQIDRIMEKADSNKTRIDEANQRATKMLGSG
T1 sequence (Q16623 whole entry, the tested form may be a part): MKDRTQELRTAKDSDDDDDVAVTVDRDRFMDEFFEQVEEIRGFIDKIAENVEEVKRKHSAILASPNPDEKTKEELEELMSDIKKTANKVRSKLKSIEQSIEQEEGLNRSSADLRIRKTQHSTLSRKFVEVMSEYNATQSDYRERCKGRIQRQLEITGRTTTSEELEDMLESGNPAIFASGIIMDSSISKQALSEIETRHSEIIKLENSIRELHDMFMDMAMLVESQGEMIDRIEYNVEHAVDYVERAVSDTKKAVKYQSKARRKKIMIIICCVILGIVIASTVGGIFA
T1 sequence (P63045 whole entry, the tested form may be a part): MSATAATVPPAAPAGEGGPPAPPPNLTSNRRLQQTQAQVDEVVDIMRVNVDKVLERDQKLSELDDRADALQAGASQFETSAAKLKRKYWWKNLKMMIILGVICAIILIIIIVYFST
Method: In order to produce SNARE proteins, SNARE proteins, such as SNAP25 (NM011428), syntaxin 1A (AF217197), and VAMP2 (NM012663), were purified in biologically transformed E. coli (Codon (+) RIL, Novagen).
In order to prepare liposome (fine membrane) marked with a fluorescent substance, POPC (62 mol %), DOPS (35 mol %), NBD-PS (1.5 mol %) and a fluorescent substance Rhodamin-PE (1.5 mol %) were mixed to obtain 10 mM of liposome (v-vesicle). Also, in order to prepare a liposome not marked with a fluorescent substance, DOPS and POPC were mixed in a molar concentration ratio of 35:65 to obtain 50 mM of liposome (t-vesicle). In order to prepare a complex of the purified SNAP25 and syntaxin 1a, the SNAP25 and the syntaxin 1a were mixed in a molar concentration ratio of 1:1, and then were reacted at room temperature for 1 hour. Then, the resultant mixture and the liposome not marked with a fluorescent substance were mixed in a molar ratio of 100:1. The VAMP2 and the liposome marked with a fluorescent substance were mixed in a molar ratio of 50:1. Then, each of the two kinds of liposomes was dialyzed by using 10 kDa dialyzing membrane through agitation at 4° C. for 24 hours, and the liposomes were mixed in a ratio of 3:7 (v-vesicle t-visicle). Next, fluorescence was measured by using a fluorometer (SpectraMax M2 manufactured by Molecular Device).
Herein, 100% indicates the degree of membrane fusion in the state where no inhibitor was added. As the value is smaller, the inhibiting degree is higher.

[2] = target: T2, SNARE complex (SNAP25, SynH3, Vps) (UniProt P60879+P63045+Q16623); test: SDS-PAGE analysis of SNARE complex formation; type: biochemical; conditions: for SNARE complex formation (%): control = 100, footnote: [phenolic compound]:SNAP-25 = 1:1, SNARE proteins 10 μM each, polyphenol 100 μM, room temperature 30 min; for Ratio for inhibition by 50% (IR50), SNARE complex formation: molar concentration ratio phenolic compound:SNAP-25, average of at least three measurements; for Inhibition of SNARE complex formation (in words): FIG. 2, concentration series
T2 construct: SynH3 (AF217197); Vps (NM012663); made in house; host or cells: E. coli (Codon (+) RIL, Novagen)
T2 sequence (P60879 whole entry): as the sequence (P60879 whole entry, the tested form may be a part) above
T2 sequence (Q16623 192-254 limits assumed): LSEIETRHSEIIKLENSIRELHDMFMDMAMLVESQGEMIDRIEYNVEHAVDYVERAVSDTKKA
T2 sequence (P63045 2-94 limits assumed): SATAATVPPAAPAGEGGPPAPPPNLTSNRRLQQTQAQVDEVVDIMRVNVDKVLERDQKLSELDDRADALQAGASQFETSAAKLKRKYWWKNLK
Method: A SNARE complex is strong enough so as not to be untwisted by SDS. On the basis of such a property, a SDS-PAGE analysis was performed in order to determine the formation of a SNARE complex. Polyphenol compounds used in the present Example were purchased from Sigma-Aldrich, Wako Chemical, and Extrasynthese.
In order to produce SNARE proteins, SNARE proteins, such as, SNAP25 (NM011428), syntaxin 1A (AF217197), VAMP2 (NM012663), SynH3 (AF217197), and Vps (NM012663), were purified in biologically transformed E. coli (Codon (+) RIL, Novagen).
Then, the materials were quickly mixed by a vortex, and were reacted at room temperature for 30 minutes. […]

[3] = 20 μM phenolic compound, 100% = no inhibitor added

| remaining activity at 20 µM [1, 3] [%] | SNARE complex formation (%) [2] [%] | SMILES | other results |
| --- | --- | --- | --- |
| 32.1 ± 4.14 | 90.14 ± 10.42 | O=c1c(O)c(-c2ccc(O)c(O)c2)oc2cc(O)ccc12 [Fisetin] |  |
| 107 ± 2.29 | 114.55 ± 5.00 | COc1ccc([C@@H]2CC(=O)c3c(O)cc(O)cc3O2)cc1O [Hesperetin] |  |
| 121 ± 1.27 | 98.12 ± 6.56 | O=c1cc(-c2ccccc2)oc2cc(O)cc(O)c12 [Chrysin] |  |
| 7.23 ± 1.08 | 67.12 ± 20.31 | Oc1cc(O)c2cc(O)c(-c3ccc(O)c(O)c3)[o+]c2c1 [Cyanidin] |  |
| 99.6 ± 7.63 | 97.23 ± 5.70 | COc1cc(C(=O)O)ccc1O [Vanillic acid] |  |
| 134 ± 1.49 | 100.78 ± 13.62 | O=C(/C=C/c1ccc(O)c(O)c1)O[C@@H]1C[C@](O)(C(=O)O)C[C@@H](O)[C@H]1O [Chlorogenic acid] |  |
| 116 ± 5.52 | 107.60 ± 13.30 | COc1cc2c(c(OC)c1OC)-c1c(cc(OC)c(OC)c1OC)C[C@](C)(O)[C@@H](C)C2 [Schizandrin] |  |
| 108 ± 10.6 | 106.78 ± 30.15 | O=C(O)/C=C/c1ccccc1 [Trans-cinnamic acid] |  |
|  | 99.04 ± 5.17 | COc1cc2c(c(OC)c1OC)-c1c(cc3c(c1OC)OCO3)C[C@H](C)[C@H](C)C2 [Gomisiin N] | Membrane fusion caused by SNARE (% of fusion without inhibitor) [1, 3]: 92.31 ± 2.37% |
| 119 ± 18.1 | 96.76 ± 8.91 | O=c1c(-c2ccc(O)cc2)coc2cc(O)cc(O)c12 [Genistein] |  |
| 96.7 ± 2.38 | 100.16 ± 2.19 | O=C(O)c1cc(O)ccc1O [Gentisic acid] |  |
| 113 ± 13.1 | 104.06 ± 24.43 | O=c1c(-c2ccc(O)cc2)coc2cc(O)ccc12 [Daidzein] |  |
| 118 ± 2.79 | 93.38 ± 14.39 | COc1cc(/C=C/C(=O)O)ccc1O [Ferulic acid] |  |
|  |  | O=c1c(O)c(-c2ccc(O)c(O)c2)oc2c(O[C@@H]3O[C@H](CO)[C@@H](O)[C@H](O)[C@H]3O)c(O)cc(O)c12 [Gossypin] | Membrane fusion caused by SNARE (% of fusion without inhibitor) [1, 3]: 103.19 ± 9.01% |
| 65.5 ± 2.09 | 86.23 ± 8.14 | O=c1cc(-c2ccc(O)c(O)c2)oc2cc(O)cc(O)c12 [Luteolin] | Reduction of membrane fusion (in words) [1]: can reduce membrane fusion; Ratio for inhibition by 50% (IR50), membrane fusion [1]: 4.02; Ratio for inhibition by 50% (IR50), SNARE complex formation [2]: 38.2 |
| 108 ± 5 | 100.13 ± 7.16 | O=c1c(O)c(-c2ccc(O)cc2)oc2cc(O)cc(O)c12 [Kaempferol] | Reduction of membrane fusion (in words) [1]: can reduce membrane fusion; Ratio for inhibition by 50% (IR50), membrane fusion [1]: >20^b; Inhibition of SNARE complex formation (in words) [2]: inhibit the formation of a SNARE complex by 50% at a low concentration; Ratio for inhibition by 50% (IR50), SNARE complex formation [2]: >60^b |

| remaining activity at 20 µM [1, 3] [%] | SNARE complex formation (%) [2] [%] | SMILES | other results |
| --- | --- | --- | --- |
| 123 ± 14.3 | 91.21 ± 11.99 | O=C(O)/C=C/c1ccc(O)cc1 [p-Coumaric acid] |  |
| 92.4 ± 3.38 | 95.61 ± 3.10 | Oc1ccc(-c2[o+]c3cc(O)cc(O)c3cc2O)cc1 [Pelargonidin] |  |
| 96.9 ± 7.99 | 96.94 ± 7.99 | O=c1cc(-c2ccc(O)cc2)oc2cc(O)cc(O)c12 [Apigenin] |  |
| 125 ± 7.45 | 93.33 ± 12.20 | O=C(O)/C=C/c1ccc(O)c(O)c1 [Caffeic acid] |  |
|  | 105.02 ± 11.37 | Oc1cc(O)c2c(c1)O[C@H](c1ccc(O)c(O)c1)[C@@H](O)C2 [(+)-Catechin] | Membrane fusion caused by SNARE (% of fusion without inhibitor) [1, 3]: 89.15 ± 1.19% |
| 109 ± 3.92 |  | O=C1c2c(O)cc(O)cc2O[C@H](c2ccc(O)c(O)c2)[C@H]1O [Taxifolin] |  |
|  | 114.55 ± 5.00 | Oc1cc(O)c2c(c1)O[C@H](c1ccc(O)c(O)c1)[C@H](O)C2 [(−)-Epicatechin] | Membrane fusion caused by SNARE (% of fusion without inhibitor) [1, 3]: 97.98 ± 1.50% |
| 33.4 ± 2.24 | 79.80 ± 10.77 | O=c1c(O)c(-c2ccc(O)c(O)c2)oc2cc(O)cc(O)c12 [Quercetin] | Reduction of membrane fusion (in words) [1]: can reduce membrane fusion; Ratio for inhibition by 50% (IR50), membrane fusion [1]: 2.87; Inhibition of SNARE complex formation (in words) [2]: inhibit the formation of a SNARE complex by 50% at a low concentration; Ratio for inhibition by 50% (IR50), SNARE complex formation [2]: 24.9 |
| 78.2 ± 2.47 | 92.25 ± 5.92 | COc1cc(C(=O)O)cc(OC)c1O [Syringic acid] |  |
| 37.5 ± 3.45 | 60.53 ± 18.88 | Oc1cc(O)c2cc(O)c(-c3cc(O)c(O)c(O)c3)[o+]c2c1 [Delphinidin] |  |
| 107 ± 6.72 |  | O=c1c(O)c(-c2ccc(O[C@@H]3O[C@H](CO)[C@@H](O)[C@H](O)[C@H]3O)c(O)c2)oc2cc(O)cc(O)c12 [Spiraeoside] |  |
| 22 ± 2.05 | 87.54 ± 9.50 | O=c1oc2c(O)c(O)cc3c(=O)oc4c(O)c(O)cc1c4c23 [Ellagic acid] | Reduction of membrane fusion (in words) [1]: can reduce membrane fusion; Ratio for inhibition by 50% (IR50), membrane fusion [1]: 7.31; Inhibition of SNARE complex formation (in words) [2]: inhibit the formation of a SNARE complex by 50% at a low concentration; Ratio for inhibition by 50% (IR50), SNARE complex formation [2]: 27.8 |
| 107 ± 2.89 | 105.02 ± 11.37 | C[C@@H]1O[C@@H](O[C@H]2[C@H](Oc3cc(O)c4c(c3)O[C@H](c3ccc(O)cc3)CC4=O)O[C@H](CO)[C@@H](O)[C@@H]2O)[C@H](O)[C@H](O)[C@H]1O [Naringin] |  |
| 86.3 ± 3.87 | 115.19 ± 23.74 | O=C(CCc1ccc(O)cc1)c1c(O)cc(O)cc1O[C@@H]1O[C@H](CO)[C@@H](O)[C@H](O)[C@H]1O [Phloridzin] |  |
|  | 97.99 ± 0.87 | COc1cc2c(c(OC)c1OC)-c1c(cc3c(c1OC)OCO3)C[C@H](C)[C@](C)(O)C2 [Gomisin A] | Membrane fusion caused by SNARE (% of fusion without inhibitor) [1, 3]: 79.63 ± 7.58% |

| SMILES | remaining activity at 20 µM [1, 3] [%] | SNARE complex formation (%) [2] [%] | other results |
| --- | --- | --- | --- |
| C[C@@H]1O[C@@H](Oc2c(-c3ccc(O)c(O)c3)oc3cc(O)cc(O)c3c2=O)[C@H](O)[C@H](O)[C@H]1O [Quercitrin] | 86 ± 26.1 | 92.18 ± 9.59 |  |
| COc1ccc([C@@H]2CC(=O)c3c(O)cc(O[C@@H]4O[C@H](CO[C@@H]5O[C@@H](C)[C@H](O)[C@@H](O)[C@H]5O)[C@@H](O)[C@H](O)[C@H]4O)cc3O2)cc1O [Hesperidin] |  | 112.38 ± 10.43 | Membrane fusion caused by SNARE (% of fusion without inhibitor) [1, 3]: 124.11 ± 15.01% |
| O=C(O)c1ccc(O)c(O)c1 [Protocatechuic acid] | 104 ± 8.19 | 98.38 ± 4.56 |  |
| COc1cc(-c2[o+]c3cc(O)cc(O)c3cc2O)cc(OC)c1O [Malvidin] |  | 97.42 ± 6.31 | remaining activity at 20 µM [1]: 116 ± 5.97% |
| O=C(O[C@@H]1Cc2c(O)cc(O)cc2O[C@@H]1c1cc(O)c(O)c(O)c1)c1cc(O)c(O)c(O)c1 [EGCG, Epigallocatechin gallate] |  | 112.38 ± 10.43 | Membrane fusion caused by SNARE (% of fusion without inhibitor) [1, 3]: 57.59 ± 3.39 % |
